Results on seven compounds are retold here after PubChem BioAssay (NCI).

Several values for one entry are separate records, joined by “and”; a condition that tells them apart may be missing. Identical values can stand only once.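 Briefly, cells in 96-well plates were exposed to five compound concentrations for 48 h, and endpoints were estimated by linear interpolation. At the GI50, growth is halved. TGI denotes the concentration required for complete inhibition of growth.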 Some results are limits rather than exact numbers.

What all share (assay): NCI tumour cell line growth inhibition, 48 h
The test system of experiment [1] is MDA-MB-231 breast.
The test system of experiment [2] is SF-268 CNS.
Experiment [3] concerns SK-MEL-2 melanoma.
Experiment [4] deals with MDA-MB-435.
In experiment [5] the test system is MCF7 breast.
For experiment [6], the system named is HT29 colon.
Experiment [7] concerns OVCAR-8 ovarian.
The test system of experiment [8] is UACC-257 melanoma.
The test system of experiment [9] is M14 melanoma.
In experiment [10] the test system is HS 578T breast.

For `COc1cccc(/C=C\C(=O)c2ccccc2)c1`, the GI50 was 17100 nM in experiment [1]; 5960 nM in experiment [2]; 18000 nM in experiment [3]; 11900 nM in experiment [4]; 2570 nM in [5]; 3650 nM in [6]. For the same compound, the GI50 in experiment [7] was 7830 nM; in experiment [8], 17700 nM; in experiment [9], 11700 nM; in experiment [10], 4150 nM. The TGI in experiment [1] turned out to be 36200 nM; in experiment [2], 28900 nM; in experiment [3] it was 34800 nM; in experiment [4], 27800 nM; in [5] it was 18600 nM; in [6], 17500 nM. Besides, the TGI in experiment [7] was determined as 24700 nM; in experiment [8] it was 33300 nM; in [9], 28800 nM; in experiment [10], 27700 nM.
As for `COc1cc(F)c(F)c(Nc2ccc(I)cc2F)c1NS(=O)(=O)C1(CC(O)CO)CC1` (centres undefined), the GI50 in experiment [1] was 11000 nM; in experiment [2], 15600 nM; in experiment [3] it was 4100 nM; in [4] it was 4630 nM; in experiment [5], 16600 nM; in experiment [6], 4500 nM. For the same compound, the GI50 was 18700 nM in [7], 3050 nM in [8], 3040 nM in [9] and 10800 nM in [10]. Besides, the TGI in experiment [1] was 27300 nM; in experiment [2], 55000 nM; in [3] it was 18800 nM; in [4], 22300 nM; in experiment [5] it was 43700 nM; in experiment [6], 22500 nM. Also, the TGI in [7] was determined as 61000 nM; in experiment [8], 19500 nM; in experiment [9], 15500 nM; in [10] it was 55400 nM.
With `COc1cc2c3c(c4ccc(O)cc4c2cc1OC)[C@@H](O)[C@@H]1CCCN1C3`, the TGI was 7.8 nM in [1]; 1.8 nM in experiment [2]; 4.29 nM in experiment [3]; 7.2 nM in experiment [4]; less than 1 nM in [5]; 34 nM in experiment [6]. Also, the TGI in experiment [7] was 480 nM; in experiment [8], 58.8 nM; in experiment [9], 8.83 nM; in [10], 5.66 nM.
`O=C(/C=C/c1ccco1)Nc1ncc(Cc2cc(Cl)ccc2Cl)s1`: the GI50 in [1] is 157 nM; in experiment [2] it was 102 nM; in [3], 148 nM; in experiment [4], 19.1 nM; in [5], 35.9 nM; in experiment [6], 38 nM. Also, the GI50 is 120 nM in [7], greater than 100000 nM in [8], 37.3 nM in experiment [9] and 42.7 nM in [10]. Further, the TGI in experiment [1] was greater than 100000 nM; in [2], greater than 100000 nM; in experiment [3] it was greater than 100000 nM; in experiment [4] it was 44.9 nM; in experiment [5], greater than 100000 nM; in experiment [6] it was greater than 100000 nM. For the same compound, the TGI in [7], in experiment [8], in experiment [9] and in [10] was greater than 100000 nM in each case.
With `CCCCCn1sc(=O)n(Cc2ccc(CNC(=O)C(C)c3ccc(CC(C)C)cc3)cc2)c1=O` (centres undefined), the GI50 was 1180 nM in [1]; 1520 nM in experiment [2]; 1500 nM in experiment [3]; 876 nM in experiment [4]; 560 nM in experiment [5]; 949 nM in experiment [6]. The GI50 in experiment [7] was 1090 nM; in experiment [8], 1480 nM; in experiment [9], 631 nM; in experiment [10], 1560 nM. Also, the TGI amounted to 2460 nM in [1]; 2960 nM in [2]; 2980 nM in [3]; 2170 nM in experiment [4]; 2260 nM in experiment [5]; 2550 nM in experiment [6]. The TGI in [7] came to 2730 nM; in [8], 3020 nM; in experiment [9] it was 1920 nM; in experiment [10] it was 4360 nM.
Regarding `COc1cc2c3c(c4cc(OC)c(OC)cc4c2cc1OC)CN1CCC[C@H]1C3`, the TGI in experiment [1] was 174 nM; in experiment [4], 494 nM and 1290 nM; in experiment [5], 127 nM and 318 nM; in [6], 1140 nM; in experiment [7], greater than 34000 nM; in experiment [8] it was 338 nM and 937 nM. For the same compound, the TGI in experiment [9] is 2150 nM and 1210 nM; in experiment [10], greater than 29200 nM. In addition, the GI50 was 14.2 nM in [2]; 29.7 nM and < 10 nM in [3]; 29.8 nM and < 14.7 nM in experiment [4]; 34 nM and < 10 nM in experiment [6]; 38.1 nM and < 10.3 nM in experiment [7]; 50.2 nM and < 14.2 nM in experiment [9].
As to `CC[C@H](C)[C@H](NC(=O)CN(C)C)C(=O)N(C)[C@H](C[C@@H](OC(C)=O)c1nc(C(=O)NC23C4C5C2C2C3C4C52C(=O)OC)cs1)C(C)C` (some centres undefined), the GI50 in [1] was 352 nM; in [2] it was 668 nM; in experiment [3] it was 838 nM; in experiment [4], 40.9 nM; in experiment [5] it was 134 nM; in [6] it was 133 nM. Further, the GI50 in experiment [7] was 507 nM; in experiment [8], 4310 nM; in experiment [9], 172 nM; in [10], 176 nM. In addition, the TGI in experiment [1] is 4620 nM; in [2] it was greater than 33200 nM; in experiment [3], greater than 33200 nM; in experiment [4], 1070 nM; in experiment [5], greater than 33200 nM; in [6], greater than 33200 nM. Further, the TGI in [7], in experiment [8], in experiment [9] and in [10] was greater than 33200 nM throughout.
